This passage reports AC50 results from PubChem BioAssay AID463199 (Broad Institute, 2010).

By AC50 is commonly meant the concentration giving half of the maximal activity seen.

The source made the active and inactive calls.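 The calls were made as follows: active = AC50, the dose giving half-maximal effect, exceeds a fixed cutoff for a compound that rescues yeast growth under heat; inactive = the rest, inconclusive results apart.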

The assay concerns S. cerevisiae Burl-1 ts mutant growth, BacTiter-Glo, 38.5C 24 h. Nature of the assay: growth induction of Burl-1 ts yeast mutant, dose response, counter-screen for SUMOylation pathway inhibitor project, whole organism, S. cerevisiae, luminescence (AID 463199). On the technique in general: The purpose of a counterscreen is to sort out artefacts and off-target activity.

For the molecule `O=C(N/N=C/c1ccccn1)NC12CC3CC(CC(C3)C1)C2`, the AC50 was > 42 µM (inactive).
The same measure for `CCC(C)NCCOc1ccccc1C` (stereo not drawn): > 42 µM (inactive).
The same measure for `CCCOC(=O)c1c(-c2ccc(OC)cc2)oc2ccc(-c3ccc(OC)nc3)cc12`: > 42 µM (inactive); for `COc1ccc(N2CCN(C(=O)Cn3nnc(-c4ccc(OC)c(OC)c4)n3)CC2)cc1`: > 42 µM (inactive).
Regarding `COc1ccc(/C=C/C(=O)NC(=S)Nc2ccccn2)cc1`, the AC50 is > 42 µM (inactive).
`CCN(CC)C(=O)Cn1cc(S(=O)(=O)CC(=O)NCCc2ccc(OC)c(OC)c2)c2ccccc21`: the AC50 was > 42 µM (inactive).
Consider `Cc1cccc(NC(=O)CCc2ccccc2)c1`, for which the AC50 is > 42 µM (inactive).
The same measure for `CC(C)(C)NC(=O)NC(=O)CN1CCN(S(=O)(=O)c2ccc3c(c2)OCCO3)CC1`: > 21 µM (inactive).
As to `O=C(COC(=O)c1ccc([N+](=O)[O-])s1)c1ccc[nH]1`, the AC50 was > 42 µM (inactive).
The figure for `CC(=O)Nc1nn(C)c2nc3ccc(C)cc3cc12` is > 42 µM (inactive); for `CSCCc1nc(SCC(=O)Nc2nnc(C)s2)[nH]c1C` it is > 42 µM (inactive).
The same measure for `COc1ccc(N(C(=O)c2ccncc2)S(=O)(=O)c2ccc(F)cc2)cc1`: > 42 µM (inactive); for `C=CCN1c2ccccc2[C@]23C[C@@H](C(=O)OC)N=C2NC(C(=O)OC)=C(C(=O)OC)[C@H]13`: > 42 µM (inactive); for `CC1=C(C(=O)N2CCOCC2)C(c2ccc(O)cc2)NC(=S)N1` (stereo not drawn): > 42 µM (inactive).
The same measure for `Cc1ccc(NS(=O)(=O)c2ccc(NC(=O)C3CCCO3)cc2)cc1` (stereo not drawn): > 42 µM (inactive); for `O=C1NC2(CCCCO2)CO1` (stereo not drawn): > 42 µM (inactive); for `O=C(Nc1ccc2ccccc2c1)N1CCCN(CCOc2ccccc2)CC1`: > 42 µM (inactive).
Take `Cc1ccc(/C=N/NC(=O)NC23CC4CC(CC(C4)C2)C3)o1`: the AC50 was > 42 µM (inactive).
For the molecule `O=C(Nc1ccc(F)cc1)c1cccnn1`, the AC50 is > 42 µM (inactive).
The figure for `c1ccc(-c2csc(NC3CCCCC3)n2)cc1` is > 42 µM (inactive); for `O=C(NCC(=O)N(c1ccccc1)C(C(=O)NCC1CCCO1)c1ccccc1)c1cccs1` (stereo not drawn) it is > 42 µM (inactive).
For `COc1ccc(C(=O)CC(=O)C(=O)Nc2ccc(C)c(Cl)c2)cc1`, the AC50 was > 42 µM (inactive).
The same measure for `COc1cccc(CN(C)C(=O)C2CCC(=O)N(Cc3cccc(F)c3)C2)c1` (stereo not drawn): > 42 µM (inactive); for `COc1cccc(OC)c1C(=O)N1CCN(Cc2ccccc2C)CC1`: > 42 µM (inactive); for `COc1cc(/C=C2\NC(=S)N(C)C2=O)ccc1OCc1cccc(F)c1`: > 42 µM (inactive).
The figure for `Cc1cc(C)cc(OCC(=O)NC2CCCc3ccccc32)c1` (stereo not drawn) is > 42 µM (inactive); for `O=c1[nH]cnc2ccc([N+](=O)[O-])cc12` it is > 42 µM (inactive); for `O=C(CSc1ncccn1)c1ccccc1Br` it is > 42 µM (inactive).
The same measure for `COc1ccc(-c2nnc(SCC(=O)N3CCCCC3)o2)cc1`: > 42 µM (inactive); for `O=c1[nH]c(=O)n(C2CCCO2)cc1Br` (stereo not drawn): > 42 µM (inactive).
Take `CC1CC(N(C(=O)c2ccccc2Cl)c2ccccc2)c2ccccc2N1` (stereo not drawn): the AC50 is > 42 µM (inactive).
`O=C(CC1(CC2=NS(=O)(=O)c3ccccc3N2)CCCC1)NCCc1ccccc1`: the AC50 was > 42 µM (inactive).
The figure for `CC(C(=O)N1CCN(C(=O)c2ccco2)CC1)n1sc2ccccc2c1=O` (stereo not drawn) is > 42 µM (inactive); for `CCc1ccccc1NC1c2ccccc2C(=O)N1c1cccnc1` (stereo not drawn) it is > 42 µM (inactive); for `COc1ccccc1NC(=O)CN(c1ccc(C)cc1)S(=O)(=O)c1c(C)n[nH]c1C` it is > 42 µM (inactive).
The figure for `CCOc1ccc(/C=N/NS(=O)(=O)c2ccc(C)cc2)cc1OC` is > 42 µM (inactive); for `O=C(NC1CCCCCC1)C1CCN(S(=O)(=O)c2cccc3cccnc23)CC1` it is > 42 µM (inactive).
In the case of `Cc1nn(C)cc1S(=O)(=O)Nc1ncccn1`, the AC50 was > 42 µM (inactive).
The same measure for `CCCOc1ccc(N2C(=O)CC(N3CCC(C(=O)OCC)CC3)C2=O)cc1` (stereo not drawn): > 42 µM (inactive); for `CN(C)C(=O)c1cc(C(=O)c2ccc(C(F)(F)F)cc2F)c[nH]1`: > 42 µM (inactive).
The figure for `CCC(=O)Nc1ccc(S(=O)(=O)NCc2ccco2)cc1` is > 42 µM (inactive); for `CC(=O)NCCc1nc2cc(NC(=O)c3ccc(F)cc3)ccc2n1C` it is > 42 µM (inactive).
The figure for `Cn1cc(C(=O)N2CCCC(Nc3ccc(F)cc3)C2)c2ccccc21` (stereo not drawn) is > 42 µM (inactive).
With `Cc1cc(O)c(/C=N/Nc2cccc(Cl)c2)c(=O)o1`, the AC50 is > 42 µM (inactive).
The same measure for `CC(NC(=O)OCc1ccccc1)C(=O)N1CC(O)CC1C(=O)O` (stereo not drawn): > 21 µM (inactive).
The figure for `COCc1nnc(NC(=O)CC(C)C)s1` is > 42 µM (inactive).
With `COc1ccccc1NC(NC(=O)c1ccco1)C(=O)c1ccccc1` (stereo not drawn), the AC50 is > 42 µM (inactive).
As for `O=C(NCc1csc(-c2cccs2)n1)Nc1ccc(F)cc1F`, the AC50 was > 42 µM (inactive).
The figure for `CCCCOc1ccc(C(=O)Nc2ccc(CN3CCOCC3)cc2)cc1` is > 42 µM (inactive); for `Cc1nnc(SCC(=O)NC(C)(C)C)n1NCc1ccc(Cl)cc1` it is > 42 µM (inactive).
The figure for `CCOC(=O)C1=C(C)Nc2ncnn2C1/C=C/c1ccccc1` (stereo not drawn) is > 42 µM (inactive); for `Fc1ccc(-c2n[nH]c(=S)n2CC2CCCO2)cc1` (stereo not drawn) it is > 42 µM (inactive); for `Cc1ccccc1NC1=NCCCS1` it is > 42 µM (inactive).
`CCOC(=O)C1CCCN(C(=O)/C=C/c2ccc(Cl)cc2)C1` (stereo not drawn): the AC50 was > 42 µM (inactive).
For `CCCNCC(O)COc1ccccc1C(=O)CCc1ccccc1` (stereo not drawn), the AC50 was > 42 µM (inactive).
The same measure for `Cc1ccc(N(C(C)C(=O)O)S(=O)(=O)c2c(C)n[nH]c2C)cc1` (stereo not drawn): > 42 µM (inactive); for `CN(C(=O)COC(=O)c1cc2ccccc2cc1O)c1c(N)n(Cc2ccccc2)c(=O)[nH]c1=O`: > 42 µM (inactive).
As to `O=[N+]([O-])c1cc([N+](=O)[O-])c2cc3ccccc3nc2c1`, the AC50 was > 42 µM (inactive).
The same measure for `O=C(Nc1nccs1)C1CCN(S(=O)(=O)c2ccc(Cl)c(C(F)(F)F)c2)CC1`: > 42 µM (inactive); for `COc1cc(C(=O)NCCOc2cc(C)cc(C)c2)cc(OC)c1OC`: > 42 µM (inactive); for `C[C@@]12C(=O)Nc3ccc(F)cc3C(=O)N1[C@H]1c3cc(Cl)ccc3OC[C@@H]1[C@@H]2c1ccccc1`: > 42 µM (inactive).
The same measure for `COc1ccc(NC(=O)Nc2ccc(OC)cc2)cc1`: > 42 µM (inactive); for `N#C/C(=C/c1ccc(N2CCCCC2)o1)C(=O)Nc1ccc(Cl)cc1`: > 42 µM (inactive).
The same measure for `CCc1c(C)nc(N2CCN(Cc3ccccc3)CC2)[nH]c1=O`: > 42 µM (inactive); for `COc1ccccc1C(=O)NC(=O)COC(=O)Cc1ccccc1[N+](=O)[O-]`: > 42 µM (inactive); for `COc1ccc(OCC(=O)O/N=C(\N)Cc2ccc(Cl)cc2)cc1`: > 42 µM (inactive).
For `COc1ccc(C(=O)NC(=S)Nc2ccc(CN3CCCCC3)cc2)cc1Cl`, the AC50 was > 42 µM (inactive).
The figure for `Cc1cccc(N(C(=O)c2ccc(CN3CCOCC3)o2)C(C(=O)NC2CCCCC2)c2ccc(F)cc2)c1` (stereo not drawn) is > 42 µM (inactive); for `CCCCCCNc1c(C(=O)OCC)c(=O)[nH]c2ccccc12` it is > 42 µM (inactive); for `O=C(O)C1C2CCC(O2)C1C(=O)NCCC1=CCCCC1` (stereo not drawn) it is 13.6 µM.
The same measure for `C/C(=N/Nc1ccc(F)cc1)c1ccc(Cl)s1`: > 42 µM (inactive); for `Oc1ccc(Br)cc1/C=N/n1c(COc2ccccc2)n[nH]c1=S`: > 42 µM (inactive); for `Cc1cccc(NS(=O)(=O)c2ccc3[nH]c(=O)cc(C(=O)O)c3c2)c1`: > 21 µM (inactive).
As to `NC1=NC(=Nc2ccc(S(N)(=O)=O)cc2)c2ccccc21`, the AC50 was > 21 µM (inactive).
The same measure for `COc1ccc(C)cc1NC(=S)N1CCN(c2ccccn2)CC1`: > 42 µM (inactive); for `CCOc1ccc(C(=O)Nc2ccc(CN3CCOCC3)cc2)cc1Br`: 41.9 µM; for `O=C(CCc1ccccc1)N1CCN(c2ccccc2F)CC1`: > 42 µM (inactive).
The same measure for `O=C1CCCC2=C1C(c1ccncc1)c1c(nc(SCc3ccccc3Cl)[nH]c1=O)N2` (stereo not drawn): > 42 µM (inactive); for `C[N+](C)(C)CC(=O)Nc1ccc(Cl)cc1C(=O)c1ccccc1`: > 42 µM (inactive).
The figure for `COc1ccc(N(C(=O)c2ccco2)C(C(=O)NC2CCCCC2)c2ccccc2)cc1` (stereo not drawn) is > 42 µM (inactive); for `CN1C(=O)NC(=O)[C@]2(Cc3ccccc3N3CCN(c4ccccc4)CC32)C1=O` (stereo partly drawn) it is > 42 µM (inactive); for `Cc1cccn2c(=O)c3cc(C(=O)NCCc4ccccc4)sc3nc12` it is > 42 µM (inactive).
With `COc1ccc2c(c1)[C@H]1[C@H](CO2)[C@H](c2ccccc2)[C@]2(C)C(=O)Nc3ccc(F)cc3C(=O)N12`, the AC50 is > 42 µM (inactive).
Regarding `Cc1cc(C(=O)N/N=C/c2ccc3c(c2)OCO3)c2ccccc2n1`, the AC50 is > 42 µM (inactive).
Turning to `CCCCC1=CC2=CC(=O)C(C)(OC(=O)CC)C(=O)C2=CN1CCc1ccc(Br)cc1` (stereo not drawn), the AC50 was > 42 µM (inactive).
With `COC(=O)c1cc(N=Nc2c(C)[nH]c3ccccc23)cc(C(=O)OC)c1`, the AC50 was > 42 µM (inactive).
Regarding `CC1=C(C(N)=O)C(c2ccccn2)n2nc(SCc3ccccc3Cl)nc2N1` (stereo not drawn), the AC50 is > 42 µM (inactive).
The same measure for `Cc1ccc(-c2nc(-c3cccnc3)sc2CC(=O)O)cc1`: > 42 µM (inactive).
